Here are results for two compounds from patent US7799768B2, “Polymorphs of 3-O-(3′,3′-dimethylsuccinyl)betulinic acid di-N-methyl-D-glucamine” (priority 2005, dated 2010).

SMILES strings stand for the structures. ≈ marks a conversion by molar mass, not a printed value.

One may read the Cmax as the highest concentration seen after dosing. What is called solubility is the concentration that dissolves in the medium under given conditions.

Data set [1] can be described thus: relative bioavailability of oral formulations in rats (plasma DSB free acid). It counts as in vivo, Sprague Dawley rats. The following applies: single oral 25 mg/kg; for Cmax: male, po. Here is the method: The following study was conducted to compare the relative bioavailability of oral formulations prepared with DSB•2NMG Form I and amorphous DSB•2NMG.
Groups of four male Sprague Dawley rats with surgically implanted jugular cannulas were given a single oral 25 mg/kg dose of DSB•2NMG (Form I or amorphous) in one of six formulations: • Group 1: 10% hydroxypropyl-β-cyclodextrin solution of amorphous DSB•2NMG; • Group 2: 10% hydroxypropyl-β-cyclodextrin solution of DSB•2NMG Form I; • Group 3: Suspension of DSB•2NMG Form I in 0.5% carboxymethylcellulose; • Group 4: Solution of DSB•2NMG Form I in 1% ethanol/10% polyethylene glycol 400/89% water; • Group 5: Solution of DSB•2NMG Form I in 10% propylene glycol/90% water; and • Group 6: Solution of DSB•2NMG Form I in water.

The next data set in a line: physchem. The following applies: 25 °C, organic solvent or mixture, approximate solubility.
Where [2] appears, read: male rats, carboxymethylcellulose, ethanol/PEG 400/water, propylene glycol/water and water formulations.

With `C=C(C)[C@@H]1CC[C@]2(C(=O)O)CC[C@]3(C)[C@H](CC[C@@H]4[C@@]5(C)CC[C@H](OC(=O)CC(C)(C)C(=O)O)C(C)(C)[C@@H]5CC[C@]43C)[C@@H]12` [amorphous DSB•2NMG, 3-O-(3′,3′-dimethylsuccinyl)betulinic acid di-N-methyl-D-glucamine], in data set [1] (Sprague-Dawley, rat, plasma, male rats, 10% hydroxypropyl-β-cyclodextrin solution, average, read-out: area under the plasma concentration-time curve from time zero extrapolated to infinity (AUCINF)), the AUC(0-inf) is 21500 ng·h/mL.

For the compound `C=C(C)[C@@H]1CC[C@]2(C(=O)O)CC[C@]3(C)[C@H](CC[C@@H]4[C@@]5(C)CC[C@H](OC(=O)CC(C)(C)C(=O)O)C(C)(C)[C@@H]5CC[C@]43C)[C@@H]12` [DSB•2NMG Form I, 3-O-(3′,3′-dimethylsuccinyl)betulinic acid di-N-methyl-D-glucamine], the “area under the plasma concentration-time curve from time zero extrapolated to infinity (AUCINF)” value in data set [1] (male rats, 10% hydroxypropyl-β-cyclodextrin solution, average, 25 mg/kg) was 23440 ng·h/mL. For the same compound, the “exposure to DSB free acid among Form I formulations” value in data set [1] (male rats, 10% propylene glycol/water vehicle, FIG. 9) is “greatest exposure”. For the same compound, the “AUCINF, times greater than from Form I given in hydroxypropyl-β-cyclodextrin” value in data set [1] (setting [2]) is 1.5-2 times. In addition, the “DSB free acid concentrations versus Form I given in 10% hydroxypropyl-β-cyclodextrin” value in data set [1] (setting [2]) is on record as “greater”. For the same compound, the “plasma concentration profile compared to amorphous DSB•2NMG formulation” value in data set [1] (male rats, hydroxypropyl-cyclodextrin formulation, FIG. 8) is on record as “equivalent plasma concentration profiles”. The Cmax in data set [1] (Sprague-Dawley, rat, plasma, 25 mg/kg, solution in 1% ethanol/10% polyethylene glycol 400/water, average) amounted to 8490 ng/mL; in data set [1] (Sprague-Dawley, rat, plasma, 25 mg/kg, solution in 10% propylene glycol/water, average) it was 10400 ng/mL; in data set [1] (Sprague-Dawley, rat, plasma, 25 mg/kg, solution in water, average) it was 9770 ng/mL; in data set [1] (Sprague-Dawley, rat, plasma, 25 mg/kg, suspension in 0.5% carboxymethylcellulose, average), 8200 ng/mL. Besides, the solubility in “physchem” (1-butanol) is < 3000 µg/mL; in the data set “physchem” (1-propanol) it was ~5000 µg/mL (≈ 8.55 mM); in the data set “physchem” (2-butanol), < 3000 µg/mL; in the data set “physchem” (2-propanol), < 3000 µg/mL; in the data set “physchem” (acetone) it was < 3000 µg/mL; in the data set “physchem” (dimethyl formamide) it was > 50000 µg/mL. Also, in “physchem” (ethanol), the solubility is ~5000 µg/mL (≈ 8.55 mM).
